According to ChEMBL document CHEMBL1201862, “PubChem BioAssay data set” (2004):
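These data come from cells grown in 96-well plates and exposed to compound for 48 hours at five concentrations. GI50 is the concentration that inhibits growth by half.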 Active and inactive are the calls of the source. No stated cut-off is given here; in the data, active = GI50 up to about 1.1 µM and inactive = higher.

Experiments:
Assay in all cases: NCI tumour cell line growth inhibition, 48 h
[1] = system: 786-0
[2] = system: CCRF-CEM
[3] = system: DU-145
[4] = system: HOP-92
[5] = system: HT-29
[6] = system: LOX IMVI
[7] = system: NCI-H460
[8] = system: OVCAR-5
[9] = system: OVCAR-8
[10] = system: RPMI-8226
[11] = system: RXF 393
[12] = system: SK-MEL-28
[13] = system: SK-MEL-5
[14] = system: SK-OV-3
[15] = system: SW-620
[16] = system: TK-10
[17] = system: ACHN
[18] = system: M14
[19] = system: HOP-62

Compound	GI50 [1]	GI50 [2]	GI50 [3]	GI50 [4]	GI50 [5]	GI50 [6]	GI50 [7]	GI50 [8]	GI50 [9]	GI50 [10]	GI50 [11]	GI50 [12]	GI50 [13]	GI50 [14]	GI50 [15]	GI50 [16]	GI50 [17]	GI50 [18]	GI50 [19]
COc1ccc(/N=c2/[nH]c(N)c(C(=O)c3ccc(OC)cc3)s2)cc1	0.441 µM (active)	0.183 µM (active)	0.378 µM (active)	25.1 µM (inactive)	0.316 µM (active)	0.596 µM (active)	0.347 µM (active)	15.3 µM (inactive)	0.537 µM (active)	0.164 µM (active)	0.324 µM (active)	4.55 µM (inactive)	0.381 µM (active)	0.376 µM (active)	0.273 µM (active)	15.1 µM (inactive)	–	–	–
COc1c(/C=C/C(C)(C)O)cc(C2CC(=O)c3c(O)cc(O)cc3O2)cc1CC=C(C)C (stereo not given)	9.57 µM (inactive)	13.2 µM (inactive)	9.06 µM (inactive)	10.3 µM (inactive)	8.91 µM (inactive)	4.44 µM (inactive)	8.73 µM (inactive)	9.14 µM (inactive)	10.8 µM (inactive)	10.8 µM (inactive)	7.91 µM (inactive)	13.2 µM (inactive)	8.47 µM (inactive)	7.83 µM (inactive)	17.3 µM (inactive)	8.67 µM (inactive)	7.6 µM (inactive)	8.45 µM (inactive)	–
COC(=O)C1=C(C)NC(C)=C(C(=O)OC)C1c1nc2sccn2c1[N+](=O)[O-]	> 100 µM (inactive)	> 100 µM (inactive)	> 100 µM (inactive)	> 100 µM (inactive)	–	> 100 µM (inactive)	> 100 µM (inactive)	> 100 µM (inactive)	79.4 µM (inactive)	> 100 µM (inactive)	> 100 µM (inactive)	> 100 µM (inactive)	> 100 µM (inactive)	> 100 µM (inactive)	> 100 µM (inactive)	> 100 µM (inactive)	> 100 µM (inactive)	> 100 µM (inactive)	> 100 µM (inactive)
CC(NC1=NCCO1)c1cccs1 (stereo not given)	17.1 µM (inactive)	20 µM (inactive)	87.9 µM (inactive)	12.6 µM (inactive)	19.1 µM (inactive)	–	28.8 µM (inactive)	69.5 µM (inactive)	41 µM (inactive)	23.7 µM (inactive)	> 10 µM (inactive)	23.1 µM (inactive)	31.8 µM (inactive)	57.9 µM (inactive)	36.5 µM (inactive)	> 100 µM (inactive)	74.6 µM (inactive)	18.2 µM (inactive)	22.2 µM (inactive)
FC1(F)SC2CCCCCCCCCCC2C1(F)F (stereo not given)	56.4 µM (inactive)	19.2 µM (inactive)	31.1 µM (inactive)	19.1 µM (inactive)	29.7 µM (inactive)	16.4 µM (inactive)	–	47.5 µM (inactive)	40.9 µM (inactive)	59.7 µM (inactive)	20.7 µM (inactive)	18.5 µM (inactive)	32.9 µM (inactive)	61.7 µM (inactive)	–	56.2 µM (inactive)	25.3 µM (inactive)	39.7 µM (inactive)	38.6 µM (inactive)
CC(C)(NC1=NCCO1)c1ccccc1	> 100 µM (inactive)	–	> 100 µM (inactive)	> 100 µM (inactive)	> 100 µM (inactive)	> 100 µM (inactive)	> 100 µM (inactive)	> 100 µM (inactive)	> 100 µM (inactive)	> 100 µM (inactive)	> 100 µM (inactive)	> 100 µM (inactive)	> 100 µM (inactive)	> 100 µM (inactive)	> 100 µM (inactive)	> 100 µM (inactive)	> 100 µM (inactive)	> 100 µM (inactive)	> 100 µM (inactive)
